Experimental data from US9441012B2, “Fluorinated epoxyketone-based compounds and uses thereof as proteasome inhibitors” (FLUORINOV PHARMA INC., priority 2012, dated 2016).

Legend:
[1] = target: T1, Trypsin-like (T-L) proteasome activity (Mus musculus, UniProt P70195); assay: Proteasome subunit activity in murine red blood cells after oral administration; assay type: in vivo, NOD/SCID mice; conditions: oral gavage, Example 1 50 mg/kg, Example 26 60 mg/kg
T1 construct: RBCs were lysed with assay lysis buffer and incubated on ice for 30 minutes; from tissue; host or cells: red blood cells of NOD/SCID mice after oral dosing
T1 sequence (P70195 44-277): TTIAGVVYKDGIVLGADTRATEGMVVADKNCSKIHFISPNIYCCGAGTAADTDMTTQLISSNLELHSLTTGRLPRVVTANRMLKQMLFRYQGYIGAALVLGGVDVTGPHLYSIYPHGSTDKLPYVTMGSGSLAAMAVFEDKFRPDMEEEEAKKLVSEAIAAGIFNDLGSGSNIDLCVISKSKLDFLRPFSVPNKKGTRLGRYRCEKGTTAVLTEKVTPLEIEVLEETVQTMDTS
Procedure: Cells were harvested by centrifugation at 1,200 rpm at room temperature. Cell pellets were washed with PBS and lysed with assay lysis buffer (50 mM HEPES (N-2-hydroxyethylpiperazine-N′-2-ethanesulfonic acid), pH 7.5; 150 mM NaCl; 1% Triton X-100; 2 mM ATP). Cell lysates were incubated on ice for 30 minutes, mixed by vortex every 5 minutes, and then centrifuged at 12,000 g for 10 minutes. The supernatant was transferred to a 96-well plate. For each assay, 10 μg of total protein were incubated for 1 hour at 37° C. with increasing concentrations (1 nM to 10 μM) of test compound diluted in assay buffer (50 mM Tris-HCl (tris(hydroxymethyl)aminomethane-HCl), pH 7.5; 150 mM NaCl). DMSO alone was used as a control in every assay plate. After incubation, a specific fluorogenic proteasome substrate was added to each assay reaction at a final concentration of 40 μM in a total volume of 100 μL. N-Succinyl-Leu-Leu-Val-Tyr-7-amino-4-methylcoumarin (Suc-Leu-Leu-Val-Tyr-AMC) was used for measuring chymotrypsin-like (CT-L) activity, t-butoxycarbonyl-Leu-Arg-Arg-7-amino-4-methylcoumarin (Boc-Leu-Arg-Arg-AMC) for trypsin-like (T-L) activity, and benzyloxycarbonyl-L-leucyl-L-leucyl-L-glutamyl-7-amino-4-methylcoumarin (Z-Leu-Leu-Glu-AMC) for caspase-like (C-L) activity. The excitation wavelength was set at 360 nm and the fluorescence emission wavelength of AMC was detected at 460 nm. The fluorescence of free AMC released during the enzymatic reaction was measured with a SpectraMax M5 fluorescent spectrophotometric plate reader (Molecular Devices, Sunnyvale, Calif.). AMC release rate was measured at 37° C. in a kinetic mode, recording every 5 minutes for 30 minutes. Experiments were performed in triplicate and repeated at least twice.
All mouse experiments were performed in accordance with approval from the Ontario Cancer Institute institutional animal review board. Five- to six-week-old male non-obese diabetic/severe combined immunodeficient (NOD/SCID) mice were grouped randomly (n=3 mice per group). Mice were administered vehicle (5% DMSO, 20% Cremophor) or compounds of Formula I at different doses either intravenously or by oral gavage, and venous blood samples (20-50 μL) were collected from each mouse over 24 hours. Blood samples were mixed with heparin (APP Pharmaceuticals; Schaumburg, Ill.) in 0.5 mL tubes in accordance with the manufacturer's instructions. After centrifugal separation at 3,000 g for 10 minutes, red blood cells (RBCs) in the bottom layer were transferred into a new tube and stored at −70° C. until use. RBCs were lysed with assay lysis buffer and incubated on ice for 30 minutes, mixing by vortex every 5 minutes, and then centrifuged at 12,000 g for 10 minutes. The supernatant was transferred to a 96-well plate and proteasome activity was measured as described in above for tumor cell lysates.
Proteasome subunit activity (Chymotrypsin-like, Trypsin-like, Caspase-like, CT-L, T-L, C-L, respectively) were monitored over the course of 24 hrs following […] administration of representative compounds of Formula I. NOD/SCID mice were treated with the compound from Example 1 (50 mg/kg by oral gavage) and the compound from Example 26 (60 mg/kg by oral gavage) or vehicle control for up to 24 hours, as described above.
Table 10 summarizes the data for the representative compounds of Formula (I); the compounds of Examples 1 and 26.

[2] = tested on: high molecular weight ubiquitylated proteins in LP1 cells; assay: Immunoblotting assay of ubiquitylated proteins; assay type: cell-based; conditions: Homo sapiens, LP-1, read-out: IC50 (increase of ubiquitylated proteins, immunoblot)
Procedure: Whole cell lysates were prepared from LP1 cells in RIPA lysis buffer. Anti-ubiquitin antibody was purchased from Cell Signaling Technology Inc, (Danvers, Mass.) and anti-tubulin antibody was purchased from Sigma-Aldrich (St. Louis, Mo.). Secondary horseradish peroxidase-conjugated goat anti-mouse or anti-rabbit IgG was purchased from Amersham Bioscience (Piscataway, N.J.). Detection was performed using an enhanced chemiluminescence kit from Pierce, (Rockford, Ill.).

[3] = tested on: standard panel of 12 tumor cell lines; assay: Hollow fiber assay (HFA); assay type: in vivo, mouse; conditions: ip, 75 mg/kg/dose and 35.5 mg/kg/dose, QD x 4
Procedure: Hollow fibre assay in vivo pharmacodynamic studies were carried out. This in vivo animal model uses semi-permeable biocompatible fibres that are filled with cancer cells, heat-sealed and implanted surgically (s.c. or i.p.) in mice or rats, which can then be treated with chemotherapeutics. Many different cell lines from different tissue origins and cellular characteristics can be encapsulated within the fibres, providing a cost-effective screening method.
The Oncology Program Screening and Characterization Strategy group at NCI uses HFA, which provides quantitative indices of drug efficacy with minimal expenditures of time and materials. Thus, the HFA is being utilized as the initial in vivo experience for compounds of Formula I.
A total of 3 different tumor lines are prepared for each experiment so that each mouse receives 3 intraperitoneal implants (1 of each tumor line) and 3 subcutaneous implants (1 of each tumor line). A compound is considered for xenograft testing if it produces cell kill of any cell line at either dose level evaluated, or it has a combined ip+sc score of 20 or greater, a sc score of 8 or greater. […]
The compound of Example 1 was evaluated in an HFA assay via ip administration at two doses; a 75 mg/kg/dose and a 35.5 mg/kg/dose, QD […] 4. […]

Row | Structure (SMILES) | Trypsin-like (T-L) mean residual activity relative to vehicle treated controls ([1]; 30 min) [%] | Trypsin-like (T-L) mean residual activity relative to vehicle treated controls ([1]; 24 hrs) [%] | Trypsin-like (T-L) mean residual activity relative to vehicle treated controls ([1]; time 0) [%] | IC50 [2] [nM] | cell killing in hollow fiber assay [3]
1 | Cc1ncc(C(=O)N[C@@H](COC(F)F)C(=O)N[C@@H](COC(F)F)C(=O)N[C@@H](Cc2ccccc2)C(=O)[C@@]2(C)CO2)s1 [Example 1, 2-methyl-thiazole-5-carboxylic acid ((S)-1-{(S)-1-[(S)-1-benzyl-2-((R)-2-methyloxiranyl)-2-oxo-ethylcarbamoyl]-2-difluoromethoxyethylcarbamoyl}-2-difluoromethoxyethyl)-amide] | 100 | 100 | 100 | < 50 | produced cell killing of multiple cell lines
2 | CC(C)C[C@H](NC(=O)[C@H](Cc1ccccc1)NC(=O)[C@H](COC(F)F)NC(=O)CN1CCOCC1)C(=O)[C@@]1(C)CO1 [Example 25, (2S)-2-[[(2S)-3-(difluoromethoxy)-2-[(2-morpholinoacetyl)amino]propanoyl]amino]-N-[(1S)-3-methyl-1-[(2R)-2-methyloxirane-2-carbonyl]butyl]-3-phenyl-propanamide] | – | – | – | < 50 | –
3 | C[C@]1(C(=O)[C@H](Cc2ccccc2)NC(=O)[C@H](COC(F)F)NC(=O)[C@H](COC(F)F)NC(=O)CN2CCOCC2)CO1 [Example 26, (S)-N-{(S)-1-[(S)-1-Benzyl-2-((R)-2-methyl-oxiranyl)-2-oxo-ethylcarbamoyl]-2-difluoromethoxyethyl}-3-difluoromethoxy-2-(2-morpholin-4-yl-acetylamino)-propio-namide] | 100 | 100 | 100 | – | –
